# Literature values as cited in patent publication US9585842B2, “Sustained release guanfacine HCL formulation” (SALMON PHARMA GMBH, priority 2013, dated 2017).
# Where a name gives a salt, the structure may show the parent alone.
# Details: low pH versus higher pH values
smiles,measurement,value
N=C(N)NC(=O)Cc1c(Cl)cccc1Cl [Guanfacine hydrochloride],pH dependent solubility,more soluble at low pH values than higher pH values
